The numbers were not newly measured in patent publication US12329856B2, “Crosslinked hyaluronic acid composition with local anesthetics” (BIOPOLIMERI S.R.L., priority 2021, dated 2025), which cites them from elsewhere.

For this data set the following is noted: tabulated in the state of the art.

As to `CCCNC(C)C(=O)Nc1c(C)csc1C(=O)OC` (centres unmarked) [articaine], the “pKa^T (thermodynamic pKa)” value is reported as 7.6.

On to `Cc1cccc(C)c1NC(=O)C1CCCCN1C` (centres unmarked) [mepivacaine], for which the “pKa^T (thermodynamic pKa)” value was 7.8.
